System: 997726-040-R-J2-PDC tumor spheroids, viability
Assay: Anticancer human tumor 997726-040-R-J2-PDC patient-derived squamous cell lung carcinoma cell line growth inhibition [PI3K]
Details: spheroids with HUVEC and MSC; for IC50: curve of first compound; for viability, T/C: stronger effect = lower value
Summary of the method: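 Targeted small molecules plus PI3K inhibitors, half-log dose series from Cmax (default top 10 microM), were applied to heterotypic spheroids of cancer cells with HUVEC and MSCs. Viability indicated growth inhibition.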

[1] = second compound 0.0316 µM, first compound 0.0316 µM
[2] = second compound 0.0316 µM, first compound 0.1 µM
[3] = second compound 0.0316 µM, first compound 0.316 µM
[4] = second compound 0.0316 µM, first compound 1 µM
[5] = second compound 0.0316 µM, first compound 3.16 µM
[6] = second compound 0.0316 µM, first compound 10 µM
[7] = second compound 0.1 µM, first compound 0.0316 µM
[8] = second compound 0.1 µM, first compound 0.1 µM
[9] = second compound 0.1 µM, first compound 0.316 µM
[10] = second compound 0.1 µM, first compound 1 µM
[11] = second compound 0.1 µM, first compound 3.16 µM
[12] = second compound 0.1 µM, first compound 10 µM
[13] = second compound 0.316 µM, first compound 0.0316 µM
[14] = second compound 0.316 µM, first compound 0.1 µM
[15] = second compound 0.316 µM, first compound 0.316 µM
[16] = second compound 0.316 µM, first compound 1 µM
[17] = second compound 0.316 µM, first compound 3.16 µM
[18] = second compound 0.316 µM, first compound 10 µM
[19] = second compound 1 µM, first compound 0.0316 µM
[20] = second compound 1 µM, first compound 0.1 µM
[21] = second compound 1 µM, first compound 0.316 µM
[22] = second compound 1 µM, first compound 1 µM
[23] = second compound 1 µM, first compound 3.16 µM
[24] = second compound 1 µM, first compound 10 µM
[25] = second compound 3.16 µM, first compound 0.0316 µM
[26] = second compound 3.16 µM, first compound 0.1 µM
[27] = second compound 3.16 µM, first compound 0.316 µM
[28] = second compound 3.16 µM, first compound 1 µM
[29] = second compound 3.16 µM, first compound 3.16 µM
[30] = second compound 3.16 µM, first compound 10 µM
[31] = second compound 10 µM, first compound 0.0316 µM
[32] = second compound 10 µM, first compound 0.1 µM
[33] = second compound 10 µM, first compound 0.316 µM
[34] = second compound 10 µM, first compound 1 µM
[35] = second compound 10 µM, first compound 3.16 µM
[36] = second compound 10 µM, first compound 10 µM
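Also: spheroids exposed to compounds for seven days before readout.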

Q: Which results are given for `C=CC(=O)N1CCN(c2nc(=O)n(-c3c(C)ccnc3C(C)C)c3nc(-c4c(O)cccc4F)c(F)cc23)C(C)C1` (centres undefined) + Cc1nc(NC(=O)N2CCCC2C(N)=O)sc1-c1ccnc(C(C)(C)C(F)(F)F)c1?
A: IC50 (second compound 0.0316 µM): > 10000 nM; IC50 (second compound 0.1 µM): > 10000 nM; IC50 (second compound 0.316 µM): > 10000 nM; IC50 (second compound 1 µM): < 31.6 nM; IC50 (second compound 3.16 µM): < 31.6 nM; IC50 (second compound 10 µM): < 31.6 nM; viability, T/C [1]: 82.8%; viability, T/C [2]: 84.3%; viability, T/C [3]: 101%; viability, T/C [4]: 108%; viability, T/C [5]: 102%; viability, T/C [6]: 109%; viability, T/C [7]: 76.3%; viability, T/C [8]: 72.7%; viability, T/C [9]: 71.1%; viability, T/C [10]: 86.8%; viability, T/C [11]: 101%; viability, T/C [12]: 89.3%; viability, T/C [13]: 53.3%; viability, T/C [14]: 55.9%; viability, T/C [15]: 61%; viability, T/C [16]: 59.5%; viability, T/C [17]: 63.6%; viability, T/C [18]: 65.6%; viability, T/C [19]: 40.8%; viability, T/C [20]: 41.8%; viability, T/C [21]: 45%; viability, T/C [22]: 39.8%; viability, T/C [23]: 52%; viability, T/C [24]: 46.2%; viability, T/C [25]: 30.9%; viability, T/C [26]: 28.6%; viability, T/C [27]: 33.6%; viability, T/C [28]: 28.6%; viability, T/C [29]: 34.1%; viability, T/C [30]: 32.2%; viability, T/C [31]: 16.2%; viability, T/C [32]: 16%; viability, T/C [33]: 15.9%; viability, T/C [34]: 17.4%; viability, T/C [35]: 22%; viability, T/C [36]: 9.67%

Q: With `CC1(C)CCC(CN2CCN(c3ccc(C(=O)NS(=O)(=O)c4ccc(NCC5CCOCC5)c([N+](=O)[O-])c4)c(Oc4cnc5[nH]ccc5c4)c3)CC2)=C(c2ccc(Cl)cc2)C1` + Cc1nc(NC(=O)N2CCCC2C(N)=O)sc1-c1ccnc(C(C)(C)C(F)(F)F)c1 as the compound, how does the IC50 (second compound 0.0316 µM) read?
A: 6130 nM

Q: What about the IC50 (second compound 0.1 µM) of the same compound?
A: 5140 nM

Q: And the IC50 (second compound 0.316 µM)?
A: 2490 nM

Q: And the IC50 (second compound 1 µM)?
A: < 31.6 nM

Q: And the IC50 (second compound 3.16 µM)?
A: < 31.6 nM

Q: What about the IC50 (second compound 10 µM) of the same compound?
A: < 31.6 nM

Q: And the viability, T/C [1]?
A: 84.2%

Q: And the viability, T/C [2]?
A: 90.8%

Q: And the viability, T/C [3]?
A: 86.1%

Q: What about the viability, T/C [4] of the same compound?
A: 91.3%

Q: And the viability, T/C [5]?
A: 76%

Q: And the viability, T/C [6]?
A: 30.9%

Q: What about the viability, T/C [7] of the same compound?
A: 73%

Q: What about the viability, T/C [8] of the same compound?
A: 71.8%

Q: What about the viability, T/C [9] of the same compound?
A: 74.9%

Q: And the viability, T/C [10]?
A: 75.5%

Q: What about the viability, T/C [11] of the same compound?
A: 67.4%

Q: And the viability, T/C [12]?
A: 25.7%

Q: And the viability, T/C [13]?
A: 58.3%

Q: What about the viability, T/C [14] of the same compound?
A: 58.6%

Q: And the viability, T/C [15]?
A: 56.2%

Q: And the viability, T/C [16]?
A: 53.6%

Q: And the viability, T/C [17]?
A: 49.5%

Q: What about the viability, T/C [18] of the same compound?
A: 25.6%

Q: And the viability, T/C [19]?
A: 48.9%

Q: What about the viability, T/C [20] of the same compound?
A: 41%

Q: What about the viability, T/C [21] of the same compound?
A: 39%

Q: And the viability, T/C [22]?
A: 39.5%

Q: What about the viability, T/C [23] of the same compound?
A: 39.2%

Q: What about the viability, T/C [24] of the same compound?
A: 11.1%

Q: And the viability, T/C [25]?
A: 25%

Q: What about the viability, T/C [26] of the same compound?
A: 28.1%

Q: And the viability, T/C [27]?
A: 27.2%

Q: What about the viability, T/C [28] of the same compound?
A: 26.2%

Q: What about the viability, T/C [29] of the same compound?
A: 24.5%

Q: And the viability, T/C [30]?
A: 8.65%

Q: What about the viability, T/C [31] of the same compound?
A: 14.8%

Q: What about the viability, T/C [32] of the same compound?
A: 10.8%

Q: What about the viability, T/C [33] of the same compound?
A: 7.16%

Q: And the viability, T/C [34]?
A: 6.93%

Q: What about the viability, T/C [35] of the same compound?
A: 5.25%

Q: And the viability, T/C [36]?
A: 2.97%

Source: PubChem BioAssay AID1963964 (Molecular Pharmacology Branch, DTP, NCI, 2024)
